tested on: ulcer; test: Anti-ulcer test (restraint and water immersion ulcer in rats, i.p.); type: in vivo, Male Wistar rats; conditions: Rattus norvegicus, ip; 25 mg/kg i.p.; read-out: % Inhibition of Ulcer
How it was run: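 Male Wistar rats (~150 g), fasted 24 h, dosed i.p. with compound in physiological saline; 1 h later restrained and immersed to xiphisternum in 21 °C water for 6 h. Stomachs examined microscopically, ulcers scored 0–3, and percent inhibition calculated.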

Structure (SMILES) | inhibition in vivo at 25 mg/kg [%]
CNC(CC(N)=O)C(O)C(OC)C(=O)NC(CC(C)C)C1Cc2cccc(O)c2C(=O)O1 (stereo not drawn) [VII-26-1] | 89
CC(C)CC(NC(=O)C(O)C(O)C(N)CC(=O)NCCC1CCCCO1)C1Cc2cccc(O)c2C(=O)O1 (stereo not drawn) [VII-1-16] | 94
CCNC(CC(N)=O)C(O)C(O)C(=O)NC(CC(C)C)C1Cc2cccc(OC(C)=O)c2C(=O)O1 (stereo not drawn) [VII-13-1] | 83
CCCCCCCCCCCCCCCCCCNC(CC(N)=O)C(O)C(OCCCC)C(=O)NC(CC(C)C)C1Cc2cccc(O)c2C(=O)O1 (stereo not drawn) [VII-17-2] | 56
CC(=O)NC(CC(N)=O)C(O)C(O)C(=O)NC(CC(C)C)C1Cc2cccc(OC(C)=O)c2C(=O)O1 (stereo not drawn) [VII-31-1] | 89
CC(C)CC(NC(=O)C(O)C(O)C(N)CC(=O)NCCc1ccc2ccccc2c1)C1Cc2cccc(O)c2C(=O)O1 (stereo not drawn) [VII-1-19] | 78
CCOc1cccc2c1C(=O)OC(C(CC(C)C)NC(=O)C(O)C(O)C(N)CC(N)=O)C2 (stereo not drawn) [VII-5-2] | 78
CCCCCCCCNC(CC(N)=O)C(O)C(O)C(=O)NC(CC(C)C)C1Cc2cccc(O)c2C(=O)O1 (stereo not drawn) [VII-10-3] | 94
CC(C)=CCCC(C)=CCNC(=O)CC(N)C(O)C(O)C(=O)NC(CC(C)C)C1Cc2cccc(O)c2C(=O)O1 (stereo not drawn) [VII-1-30] | 83
CCOc1cccc2c1C(=O)OC(C(CC(C)C)NC(=O)C(OC(C)=O)C(O)C(CC(N)=O)NC)C2 (stereo not drawn) [VII-24-1] | 66
CCCCOC(C(=O)NC(CC(C)C)C1Cc2cccc(OC)c2C(=O)O1)C(O)C(N)CC(N)=O (stereo not drawn) [VII-7-1] | 89
CNC(CC(N)=O)C(O)C(OC(C)=O)C(=O)NC(CC(C)C)C1Cc2cccc(OC(C)=O)c2C(=O)O1 (stereo not drawn) [VII-21-1] | 66
COc1cccc2c1C(=O)OC(C(CC(C)C)NC(=O)C(O)C(O)C(N)CC(N)=O)C2 (stereo not drawn) [VII-5-1] | 78

same assay, conditions: Rattus norvegicus, ip; 50 mg/kg i.p.; read-out: % Inhibition of Ulcer

Structure (SMILES) | inhibition in vivo at 50 mg/kg [%]
CNC1CC(=O)OC1C(OC)C(=O)NC(CC(C)C)C1Cc2cccc(OC(C)=O)c2C(=O)O1 (stereo not drawn) [IIIa-35-1] | 56
CC(=O)Oc1cccc2c1C(=O)OC(C(CC(C)C)NC(=N)C(OC(=O)C(C)C)C(O)C(N)CC(=O)O)C2 (stereo not drawn) [Vb-3-1] | 56
CCCC(=O)NC1CC(=O)OC1C(O)C(=O)NC(CC(C)C)C1Cc2cccc(OC(C)C)c2C(=O)O1 (stereo not drawn) [IIIa-5-121] | 33
CCOc1cccc2c1C(=O)OC(C(CC(C)C)NC(=O)C(O)C1OC(=O)CC1NC(=O)c1ccc(SC)cc1)C2 (stereo not drawn) [IIIa-5-45] | 33
CC(=O)Oc1cccc2c1C(=O)OC(C(CC(C)C)NC(=O)C(OC(C)=O)C1OC(=O)CC1NC(=O)C1CCCO1)C2 (stereo not drawn) [IIIa-3-6] | 33
CCOc1cccc2c1C(=O)OC(C(CC(C)C)NC(=O)C(O)C1OC(=O)CC1NC(=O)c1ccco1)C2 (stereo not drawn) [IIIa-5-22] | 44
CC(=O)Oc1cccc2c1C(=O)OC(C(CC(C)C)NC(=O)C(OC(C)=O)C1OC(=O)CC1NCC(Cl)(Cl)Cl)C2 (stereo not drawn) [IIIa-20-10] | 56
CCCCCCCCCCCCCCCCCCNC1CC(=O)OC1C(O)C(=O)NC(CC(C)C)C1Cc2cccc(OCCCCC)c2C(=O)O1 (stereo not drawn) [IIIa-22-6] | 72
CCOc1cccc2c1C(=O)OC(C(CC(C)C)NC(=O)C(O)C1OC(=O)CC1NC(=O)c1nnnn1C)C2 (stereo not drawn) [IIIa-5-27] | 44
CCOc1cccc2c1C(=O)OC(C(CC(C)C)NC(=O)C(O)C1OC(=O)CC1NCCCCCO)C2 (stereo not drawn) [IIIa-22-53] | 78
CC(C)CC(NC(=O)C(O)C1OC(=O)CC1NC(=O)Cc1ccc2ccccc2c1)C1Cc2cccc(O)c2C(=O)O1 (stereo not drawn) [IIIa-1-64] | 56
CCOc1cccc2c1C(=O)OC(C(CC(C)C)NC(=O)C(O)C1OC(=O)CC1NCC=C(C)C)C2 (stereo not drawn) [IIIa-22-72] | 94
CC(C)CC(NC(=O)C(O)C1OC(=O)CC1NC(=O)Cn1cnnn1)C1Cc2cccc(O)c2C(=O)O1 (stereo not drawn) [IIIa-1-75] | 66
CCOc1cccc2c1C(=O)OC(C(CC(C)C)NC(=O)C(O)C1OC(=O)CC1NC(=O)C1CC1)C2 (stereo not drawn) [IIIa-5-18] | 44
CCOc1cccc2c1C(=O)OC(C(CC(C)C)NC(=O)C(OC(C)=O)C1OC(=O)CC1NC(=O)c1ccc(C)cc1)C2 (stereo not drawn) [IIIa-6-8] | 22
CC(C)CC(NC(=O)C(O)C1OC(=O)CC1NC(=O)C1CCCCCCC1)C1Cc2cccc(O)c2C(=O)O1 (stereo not drawn) [IIIa-1-62] | 66
CCCCCCCCCCCCCCCCCC(=O)NC1CC(=O)OC1C(OCC)C(=O)NC(CC(C)C)C1Cc2cccc(OCCCCCCC)c2C(=O)O1 (stereo not drawn) [IIIa-7-4] | 22
CNC1CC(=O)OC1C(OC)C(=O)NC(CC(C)C)C1Cc2cccc(O)c2C(=O)O1 (stereo not drawn) [IIIa-34-1] | 66
CCOC(=O)CCC(=O)NC1CC(=O)OC1C(O)C(=O)NC(CC(C)C)C1Cc2cccc(OCC)c2C(=O)O1 (stereo not drawn) [IIIa-5-36] | 44
C/C=C/C(=O)Oc1cccc2c1C(=O)OC(C(CC(C)C)NC(=O)C(O)C1C=CC(=O)O1)C2 (stereo not drawn) [IVa-3-18] | 33
CCC(=O)OC(C(=O)NC(CC(C)C)C1Cc2cccc(OCC3CCCCC3)c2C(=O)O1)C1OC(=O)CC1NC(C)=O (stereo not drawn) [IIIa-6-10] | 33
CCCCNC1CC(=O)OC1C(O)C(=O)NC(CC(C)C)C1Cc2cccc(OCCC(C)C)c2C(=O)O1 (stereo not drawn) [IIIa-22-77] | 94
CC(C)CC(NC(=O)C(O)C1C=CC(=O)O1)C1Cc2cccc(OCCc3ccc4ccccc4c3)c2C(=O)O1 (stereo not drawn) [IVa-4-18] | 33
CC(C)CC(NC(=O)C(OC(=O)C(C)C)C1C=CC(=O)O1)C1Cc2cccc(O)c2C(=O)O1 (stereo not drawn) [IVa-1-4] | 44

Structure (SMILES) | inhibition in vivo at 50 mg/kg [%]
CCCCCCC(=O)OC(C(=O)NC(CC(C)C)C1Cc2cccc(O)c2C(=O)O1)C1C=CC(=O)O1 (stereo not drawn) [IVa-1-8] | 33
CCOc1cccc2c1C(=O)OC(C(CC(C)C)NC(=O)C(OCC)C1OC(=O)CC1NC(C)=O)C2 (stereo not drawn) [IIIa-7-2] | 33
Cc1ccc(COc2cccc3c2C(=O)OC(C(CC(C)C)NC(=O)C(O)C2OC(=O)CC2N)C3)cc1 (stereo not drawn) [IIIa-13-21] | 89
CC(C)CC(NC(=O)C(O)C1OC(=O)CC1NC(=O)C(C)C)C1Cc2cccc(O)c2C(=O)O1 (stereo not drawn) [IIIa-1-4] | 66
CCCCCSc1ccc(C(=O)NC2CC(=O)OC2C(O)C(=O)NC(CC(C)C)C2Cc3cccc(O)c3C(=O)O2)cc1 (stereo not drawn) [IIIa-1-47] | 56
CCOc1cccc2c1C(=O)OC(C(CC(C)C)NC(=O)C(O)C1OC(=O)CC1NC(=O)c1ccc(CCC(C)C)cc1)C2 (stereo not drawn) [IIIa-5-38] | 33
CCC(=O)COc1cccc2c1C(=O)OC(C(CC(C)C)NC(=O)C(O)C1C=CC(=O)O1)C2 (stereo not drawn) [IVa-4-20] | 44
CCOc1cccc2c1C(=O)OC(C(CC(C)C)NC(=O)C(O)C1OC(=O)CC1NC(=O)C13CC4CC(CC(C4)C1)C3)C2 (stereo not drawn) [IIIa-5-15] | 33
CCOc1cccc2c1C(=O)OC(C(CC(C)C)NC(=O)C(O)C1OC(=O)CC1NC(=O)CCCBr)C2 (stereo not drawn) [IIIa-5-31] | 44
CCNC(CC(=O)O)C(O)C(O)C(=N)NC(CC(C)C)C1Cc2cccc(O)c2C(=O)O1 (stereo not drawn) [Vb-10-1] | 94
CC(C)CCOc1cccc2c1C(=O)OC(C(CC(C)C)NC(=O)C(O)C1C=CC(=O)O1)C2 (stereo not drawn) [IVa-4-4] | 44
CCOc1cccc2c1C(=O)OC(C(CC(C)C)NC(=O)C(O)C1OC(=O)CC1NC(=O)C1CCC(C(=O)OC)CC1)C2 (stereo not drawn) [IIIa-5-66] | 44
COC(C(=N)NC(CC(C)C)C1Cc2cccc(O)c2C(=O)O1)C(O)C(N)CC(=O)O (stereo not drawn) [Vb-8-1] | 78
CCCCOc1cccc2c1C(=O)OC(C(CC(C)C)NC(=O)C(O)C1C=CC(=O)O1)C2 (stereo not drawn) [IVa-4-3] | 44
CSCC(=O)NC1CC(=O)OC1C(O)C(=O)NC(CC(C)C)C1Cc2cccc(O)c2C(=O)O1 (stereo not drawn) [IIIa-1-44] | 66
CNC1CC(=O)OC1C(OC(=O)CC(C)C)C(=O)NC(CC(C)C)C1Cc2cccc(O)c2C(=O)O1 (stereo not drawn) [IIIa-28-2] | 66
COC1CCC(C(=O)NC2CC(=O)OC2C(O)C(=O)NC(CC(C)C)C2Cc3cccc(O)c3C(=O)O2)CC1 (stereo not drawn) [IIIa-1-73] | 66
CCCCCCCCCCCCCCCCCCOc1cccc2c1C(=O)OC(C(CC(C)C)NC(=O)C(O)C1C=CC(=O)O1)C2 (stereo not drawn) [IVa-4-5] | 33
CC(C)CCOc1cccc2c1C(=O)OC(C(CC(C)C)NC(=O)C(O)C1OC(=O)CC1N)C2 (stereo not drawn) [IIIa-13-4] | 100
CCC(=O)OC(C(=O)NC(CC(C)C)C1Cc2cccc(O)c2C(=O)O1)C1C=CC(=O)O1 (stereo not drawn) [IVa-1-2] | 44
CCOc1cccc2c1C(=O)OC(C(CC(C)C)NC(=O)C(OC(=O)CC)C1OC(=O)CC1NC(=O)C(Cl)(Cl)Cl)C2 (stereo not drawn) [IIIa-6-13] | 33
CCOc1cccc2c1C(=O)OC(C(CC(C)C)NC(=O)C(OC(C)=O)C1OC(=O)CC1NC)C2 (stereo not drawn) [IIIa-32-1] | 56
CCCCCCCCCCCCCCCCCCNC1CC(=O)OC1C(OC(C)=O)C(=O)NC(CC(C)C)C1Cc2cccc(OCC)c2C(=O)O1 (stereo not drawn) [IIIa-23-3] | 44

From patent publication US4393225A, “AI-77 Compounds and pharmaceutically acceptable salts thereof” (Asahi Kasei Kogyo Kabushiki Kaisha, priority 1979, dated 1983)
